# Several values for one entry are separate records, joined by “and”; a condition that tells them apart may be missing. Identical values can stand only once. Entries after “also recorded” stand apart in the source; their conditions may differ.
# Legend:
# Glucose tolerance test = type: in vivo, rats; design: Glucose tolerance test, 0 min (1 h after effector administration): unit not given here; settings: for glucose levels in the glucose tolerance test: compared with the control group
# Excerpt: 5 animals were used within the same experimental group.
# [1] = Intraperitoneal administration of zinc preparations to intact rats (insulin, superoxide dismutase, islets of Langerhans, metals, body weight); type: in vivo; settings: 7 injections; for accumulation of zinc in the kidney tissues / accumulation of zinc in the liver tissues: day 1 and day 7 after withdrawal
# Experimental: The current dose was calculated by zinc.
# The rat serum was prepared from whole blood.
# The total kidney and liver homogenates were centrifuged at 600 g for 15 minutes.
# The optical density was measured at 492 nm.
# [2] = tested on: serotonergic system (serum); assay: Serum tryptophan, serotonin and monoamine oxidase activity in obesity model; type: in vivo, rats; settings: zinc aspartate 4.5 mg/animal intragastrically every third day, week 10
# Experimental: (§1) Animal serum was prepared from whole blood. […] Samples were centrifuged for 15 min at 2500 g.
# (§2) The samples were reprecipitated by centrifugation.
# (§3) University. Medicine. - 2000. - 1, No. 494. - P. 40-43.
# [3] = tested on: pro-inflammatory (IL-1, IL-6, IL-12, IFN-γ) and anti-inflammatory (IL-4, IL-10, TGF) cytokines; assay: Serum cytokine profile in obesity model (immunoenzyme method); type: in vivo, rats; settings: zinc aspartate 4.5 mg/animal intragastrically every third day
# Experimental: as §1
# [4] = tested on: products of oxidative modification of proteins; assay: Serum levels of products of oxidative modification of proteins in obesity model; type: in vivo; settings: DIO rats (high-fat diet), zinc aspartate 4.5 mg/animal intragastrically every third day, week 10
# Experimental: as §1
# Proteins were precipitated by adding a 20% TCA solution.
# [5] = tested on: pro-inflammatory (IL-1, IL-6, IL-12, IFN-γ) and anti-inflammatory (IL-4, IL-10, TGF) cytokines; assay: Cytokine profile in adipose tissue in obesity model (immunoenzyme method); type: in vivo, rats; settings: zinc aspartate 4.5 mg/animal intragastrically every third day, week 10
# Experimental: Adipose tissue was crushed using cold scissors then transferred to a homogenizer with a loose-fitting Teflon pestle. […] Primary homogenate thus obtained was centrifuged at 600 g for 15 minutes. The supernatant was carefully collected and re-centrifuged at 15,000 g for 15 minutes. The supernatant was then frozen and stored at -80°C until the experiments.
# The antigen solution, previously diluted with 0.1 M NaHCO3 buffer, pH 9.6, to a concentration of 10 µg/ml, was incubated in the plate wells for 12 hours at 4°C. Unbound material was removed by washing the wells three times with TBS buffer, first with 0.05% Tween-20, then without Tween-20. Non-specific binding sites were blocked by adding a solution of 5% skim milk or a solution of 1% bovine serum albumin to the plate wells and incubating them for 60 minutes at 37°C. After incubation, the wells were washed three times with TBS, first with 0.05% Tween-20, then without Tween-20. Primary antibodies were diluted in TBS in accordance with the manufacturer's instructions and incubated with the antigen for 60 min at 37°C. After washing with TBS working buffer, first with the addition of 0.05% Tween-20, then without Tween-20, the conjugate of secondary antibodies was added to the wells and incubated for 60 min at 37°C. As with the primary antibodies, secondary antibodies were diluted in TBS in accordance with the manufacturer's instructions. After the washing procedure, phenyldiamine dihydrochloride as substrate in 0.05M phosphate-citrate buffer was added to each well, followed by the addition of 0.3% hydrogen peroxide. After 10 minutes, the reaction time needed for development, 2.5 n H2SO4 was added.
# The absorbance at a wavelength of 492 nm was measured using a µQuant microplate spectrophotometer (BioTek Instruments).
# [6] = tested on: central serotonergic system (brain); assay: Indicators of the central serotonergic system (brain) in obesity model; type: in vivo, rats; settings: zinc aspartate 4.5 mg/animal intragastrically every third day, week 10
# Excerpt: The animal's head was separated from the body and the skull was carefully cut. The brain was carefully lifted with a scalpel from the bony vault, all cranial nerves were amputated and the brain was removed from the skull. The brain was divided into two parts with a longitudinal incision made between the hemispheres.
# (§4) The tissue : buffer ratio was 1:10.
# as §2, §3
# (§5) The supernatant was used in further studies.
# islets of Langerhans = assay: Morpho-functional analysis of pancreas in obesity model; type: in vivo, rats; settings: zinc aspartate 4.5 mg/animal intragastrically every third day
# Excerpt: After fixation, the pieces were rinsed in tap water. Then the material was dehydrated.
# Dried preparations were stained with hematoxylin and eosin.
# superoxide dismutase = assay: Serum superoxide dismutase activity in obesity model; type: in vivo; settings: DIO rats (high-fat diet), zinc aspartate 4.5 mg/animal intragastrically every third day, week 10
# Experimental: To measure superoxide dismutase activity, a method based on the ability of this enzyme to inhibit auto-oxidation of adrenaline was used.
# Serum aliquots were added to microplate wells containing 0.2M bicarbonate buffer, pH 10. The reaction was initiated by adding 0.1% adrenaline solution in each well. A relevant volume of buffer was added to the "blank" wells to which no test sample was added. The optical density was measured at a wavelength of 347 nm using a µQuant microplate spectrophotometer (BioTek Instruments) at the 4th and 8th minute after adrenaline was added to the wells. The enzyme activity was expressed in relative units/min/mg.
# [7] = Anthropometric values, amount and calorie content of food in high-fat diet induced obesity model; settings: zinc aspartate 4.5 mg/animal intragastrically every third day; for BMI (g/cm^2) / Weight gain as of the end of the experiment (%): week 10
# Excerpt: White non-pedigree rats with an initial weight of 195-205±10 g were used in the experiment.
# Before the start of the experiment, animals were maintained on a standard diet of the vivarium. To induce obesity in experimental animals, they were fed high-fat diet which consisted of standard feed (60%), lard (10%), chicken eggs (10%), sucrose (9%), peanuts (5%), dry milk (5%) and sunflower oil (1%) (1%) (see X. H. Shen et al., Exp. Biol. and Med. 235: 47-51 (2010)).
# Animals in all groups were weighed once a week after an overnight fast. The amount of feed to be consumed by the animals was determined daily. At the end of a 10-week period of the development of obesity models, 24 hours after the last administration of the zinc isotope solution, animals were removed from their cages and decapitated.
# The body mass index (BMI) (the ratio of body weight (g) to the square of body length (cm^2)) was calculated at the end of the experiment.
# Animals with an initial weight of 195-205±10 g maintained on the standard diet of the vivarium before performing obesity models were used in the experiments.
# Animals in all groups were weighed once a week after an overnight fast. The amount of feed to be consumed by the animals was determined daily.
# [8] = Serum lipids, alkaline phosphatase activity and albumin in obesity model; type: in vivo, rats; settings: table is an image
# Excerpt: Test kit // Pliva-Lachema Diagnostika. - 2008.
# The alkaline phosphatase activity was expressed in relative units.
# [9] = tested on: peripheral serotonergic system (duodenum); assay: Indicators of the peripheral serotonergic system (duodenum) in obesity model; type: in vivo, rats; settings: zinc aspartate 4.5 mg/animal intragastrically every third day, week 10
# Excerpt: as §4
# The samples were reprecipitated by centrifugation. […]
# as §5
# [10] = 3750 µg of zinc per 1 kg intraperitoneally every other day
# [11] = 3750 µg of zinc per 1 kg intraperitoneally
# [12] = DIO rats (high-fat diet), week 10
# [13] = control rats (standard diet), week 10
# [14] = rats having obesity (high-fat diet)
smiles,measurement,setting,value
"CC(=O)[O-].CC(=O)[O-].[Zn+2] [Zn acetate, Zn(CH3COO)2, reference compound]","Glucose tolerance test, 0 min (1 h after effector administration)","Glucose tolerance test; blood glucose, fast overnight, dose: 5 mg/kg in a volume of 2 ml, individual animals 1-5, 5 mg/kg",4.6 and 5.2 (2×) and 4.9 and 5.1
same,"Glucose tolerance test, 60 min (1 h after glucose administration)","Glucose tolerance test; blood glucose, glucose 3 g/kg body weight in 2 ml, dose: 5 mg/kg in a volume of 2 ml, individual animals 1-5, 5 mg/kg",7.2 (2×) and 6.9 and 7.3 and 6.8
same,glucose levels in the glucose tolerance test,Glucose tolerance test,"glucose levels also dropped, though not so strongly"
same,serum insulin levels at day 7 after the withdrawal,[1]; [10],a drop in the insulin levels to the value of those of intact/control animals
same,serum insulin levels on the first day after the drug withdrawal,[1]; [10],a significant increase
same,accumulation of zinc in the kidney tissues,[1]; [11],significantly increased
same,accumulation of zinc in the liver tissues,[1]; [11],significantly increased
"N[C@@H](CC(=O)[O-])C(=O)[O-].[Zn+2] [^64Zne, zinc aspartate]","Monoamine oxylase activity, RU/mg protein",[2]; DIO rats (high-fat diet),3.11±0.08 RU/mg protein
same,Serotonin,[2]; DIO rats (high-fat diet),6.33 ± 0.51 µg/g
same,Tryptophan,[2]; DIO rats (high-fat diet),66.65 ± 9.62 µg/g
same,"Monoamine oxylase activity, RU/mg protein",[2]; control rats (standard diet),2.52±0.03 RU/mg protein
same,Serotonin,[2]; control rats (standard diet),10.16 ± 0.62 µg/g
same,Tryptophan,[2]; control rats (standard diet),56.12 ± 7.58 µg/g
same,IFN-γ level,[3]; [12],4.1±1.2 RU/mg protein
same,IL-1 level,[3]; [12],4.2±0.4 RU/mg protein
same,IL-4 level,[3]; [12],5.6±1.6 RU/mg protein
same,IL-6 level,[3]; [12],5.1±0.4 RU/mg protein
same,IL-10 level,[3]; [12],6.8±1.1 # RU/mg protein
same,IL-12 level,[3]; [12],2.4±0.06 RU/mg protein
same,TGF level,[3]; [12],5.7±0.3 # RU/mg protein
same,TGF level,"[3]; DIO rats (high-fat diet), week 10, listed as Zinc",5.7±0.3 RU/mg protein
same,IFN-γ level,[3]; [13],4.6±0.6 RU/mg protein
same,IL-1 level,[3]; [13],3.5±0.7 RU/mg protein
same,IL-4 level,[3]; [13],4.6±0.8 RU/mg protein
same,IL-6 level,[3]; [13],4.3±0.2 RU/mg protein
same,IL-10 level,[3]; [13],4.1±0.5 RU/mg protein
same,IL-12 level,[3]; [13],0.3±0.04 RU/mg protein
same,TGF level,[3]; [13],4.1±0.4 RU/mg protein
same,glucose levels in the glucose tolerance test,Glucose tolerance test; listed as zinc isotope,a drop in glucose concentration; also recorded: a decrease in glucose levels
same,glucose levels in the glucose tolerance test,Glucose tolerance test; listed as zinc isotope ^64Zn,a significant decrease in glucose levels
same,body weight of rats,[1]; [10],a significant increase in the body weight
same,serum insulin levels at day 7 after the withdrawal,[1]; [10],insulin levels in the blood of animals increased
same,serum insulin levels on the first day after the drug withdrawal,[1]; [10],slightly higher than in the group of intact animals
same,serum insulin levels at day 7 after the withdrawal,"[1]; 3750 µg of zinc per 1 kg intraperitoneally every other day, listed as zinc isotope",a significant increase in the insulin levels
same,accumulation of zinc in the kidney tissues,[1]; [11],significantly increased
same,accumulation of zinc in the liver tissues,[1]; [11],significantly increased
same,area of islets of Langerhans,"[1]; 3750 µg of zinc per 1 kg intraperitoneally, day 7 after the last administration, compared to control group and zinc acetate group",a significant increase in the islet area
same,"Aldehyde-dinitrophenyl-hydrazones, nmol/mg protein",[4],0.253±0.012 nmol/mg protein
same,"Ketone-dinitrophenyl-hydrazones, nmol/mg protein",[4],0.200±0.024 nmol/mg protein
same,IFN-γ level,[5]; DIO rats (high-fat diet),4.9±0.8 RU/mg protein
same,IL-4 level,[5]; DIO rats (high-fat diet),5.1±1.2 RU/mg protein
same,IL-6 level,[5]; DIO rats (high-fat diet),6.1±0.7 RU/mg protein
same,IL-10 level,[5]; DIO rats (high-fat diet),5.8±0.8 RU/mg protein
same,IL-12 level,[5]; DIO rats (high-fat diet),1.99±0.01 RU/mg protein
same,TGF level,[5]; DIO rats (high-fat diet),5.2±0.9 RU/mg protein
same,IFN-γ level,[5]; control rats (standard diet),5.0±0.8 RU/mg protein
same,IL-1 level,[5]; control rats (standard diet),4.9±1.7 RU/mg protein
same,IL-4 level,[5]; control rats (standard diet),5.0±0.4 RU/mg protein
same,IL-6 level,[5]; control rats (standard diet),5.4±0.3 RU/mg protein
same,IL-10 level,[5]; control rats (standard diet),4.9±0.2 RU/mg protein
same,IL-12 level,[5]; control rats (standard diet),1.0±0.03 RU/mg protein
same,TGF level,[5]; control rats (standard diet),5.1±0.6 RU/mg protein
same,"Indoleamine dioxygenase activity, µmol/mg protein",[6]; DIO rats (high-fat diet),2007 ± 175 µmol/mg protein
same,"Monoamine oxidase activity, RU/mg protein",[6]; DIO rats (high-fat diet),0.99±0.08 RU/mg protein
same,Serotonin,[6]; DIO rats (high-fat diet),20.1 ± 3.21 µg/g
same,Tryptophan,[6]; DIO rats (high-fat diet),31.56 ± 2.14 µg/g
same,"Tryptophan decarboxylase activity, RU/mg protein",[6]; DIO rats (high-fat diet),1.86 ± 0.37 RU/mg protein
same,"Tryptophan hydroxylase activity, RU/mg protein",[6]; DIO rats (high-fat diet),286 ± 17 RU/mg protein
same,"Indoleamine dioxygenase activity, µmol/mg protein",[6]; control rats (standard diet),1178 ± 267 µmol/mg protein
same,"Monoamine oxidase activity, RU/mg protein",[6]; control rats (standard diet),0.91 ±0.06 RU/mg protein
same,Serotonin,[6]; control rats (standard diet),25.51 ± 2.71 µg/g
same,Tryptophan,[6]; control rats (standard diet),87.71 ± 3.41 µg/g
same,"Tryptophan decarboxylase activity, RU/mg protein",[6]; control rats (standard diet),1.63 ± 0.41 RU/mg protein
same,"Tryptophan hydroxylase activity, RU/mg protein",[6]; control rats (standard diet),291 ± 29 RU/mg protein
same,"cross-sectional surface area of the islets of Langerhans, increase compared with the obesity group",islets of Langerhans; [14],43%
same,"cross-sectional surface area of the islets of Langerhans, lower than the control value",islets of Langerhans; [14],29%
same,"cross-sectional surface area of the islets of Langerhans, decrease compared with the control group",islets of Langerhans; rats that ate a standard diet,39%
same,"Superoxide dismutase activity, RU/ min per mg protein",superoxide dismutase,4.5±0.43 # RU/ min per mg protein
same,Amount of food consumed,[7]; DIO rats (high-fat diet),29 g/day
same,Calorie content of food,[7]; DIO rats (high-fat diet),823 kJ/day
same,BMI (g/cm^2),[7]; DIO rats (high-fat diet),0.65 g/cm^2
same,Weight gain as of the end of the experiment (%),[7]; DIO rats (high-fat diet),62%
same,Amount of food consumed,[7]; control rats (standard diet),32 g/day
same,Calorie content of food,[7]; control rats (standard diet),490 kJ/day
same,BMI (g/cm^2),[7]; control rats (standard diet),0.59 g/cm^2
same,Weight gain as of the end of the experiment (%),[7]; control rats (standard diet),59%
same,"levels of triglycerides, cholesterol and free fatty acids in the serum","[8]; animals fed a high-fat diet, zinc aspartate 2.25 mg/ml intragastrically in a volume of 2 ml",almost at the same level as in the control group
same,alkaline phosphatase activity,"[8]; serum, animals on high-fat diet treated intragastrically",higher than both in the group of diet-induced obesity models and in the control group
same,albumin values,"[8]; serum, obese animals treated intragastrically, versus untreated obese animals",had no effect on albumin values
same,"Indoleamine dioxygenase activity, µmol/mg protein",[9]; DIO rats (high-fat diet),1768 ± 274 µmol/mg protein
same,"Monoamine oxidase activity, RU/mg protein",[9]; DIO rats (high-fat diet),1.72 ±0.03 RU/mg protein
same,Serotonin,[9]; DIO rats (high-fat diet),9.73 ± 0.82 µg/g
same,Tryptophan,[9]; DIO rats (high-fat diet),89.4 ± 8.99 µg/g
same,"Tryptophan decarboxylase activity, RU/mg protein",[9]; DIO rats (high-fat diet),0.78 ± 0.19 RU/mg protein
same,"Tryptophan hydroxylase activity, RU/mg protein",[9]; DIO rats (high-fat diet),253 ± 58 RU/mg protein
same,"Indoleamine dioxygenase activity, µmol/mg protein",[9]; control rats (standard diet),2150 ± 231 µmol/mg protein
same,"Monoamine oxidase activity, RU/mg protein",[9]; control rats (standard diet),3.82 ±0.07 RU/mg protein
same,Serotonin,[9]; control rats (standard diet),7.41 ± 0.54 µg/g
same,Tryptophan,[9]; control rats (standard diet),154.7 ± 13.6 µg/g
same,"Tryptophan decarboxylase activity, RU/mg protein",[9]; control rats (standard diet),0.79 ± 0.22 RU/mg protein
same,"Tryptophan hydroxylase activity, RU/mg protein",[9]; control rats (standard diet),375 ± 61 RU/mg protein

# — patent publication EP4076432B1, “COMPOSITION AND METHOD FOR THE PREVENTION AND TREATMENT OF OBESITY” (Vector Vitale IP LLC, priority 2019, dated 2021)
